We go through two molecules from patent US20200216316A1, “METHOD FOR THE MANUFACTURE OF CYCLODODECASULFUR” (EASTMAN CHEMICAL COMPANY, priority 2016, published 2020).

SMILES strings stand for the structures.

A short description of data set [1]: Solubility of sulfur species in p-xylene, chlorobenzene and carbon disulfide (sulfur content of equilibrated supernatant by Uniquant). The class given is physicochemical. As to the method: Fifty grams of p-xylene was added to each of three identical 100-milliliter jacketed glass vessels fitted with a circulating heating bath, cooling water condenser, magnetic stir bar and stir plate, and nitrogen purge. All vessels were heated to the desired temperature, and cyclooctasulfur, cyclododecasulfur (prepared as in Example 2), and unoiled commercial crystalline polymeric sulfur (Crystex™) was added in sufficient quantities to each of the glass vessels to allow undissolved solids to remain after dissolution and equilibration of the mixture. The equilibration period typically lasted 2 to 8 hours, during which the contents of the vessel were maintained at the desired temperature and stirred continuously. Upon equilibration, supernatant liquid was withdrawn from the vessels via a heated fritted glass pipette (heated to the same temperature as the solution). The supernatants were analyzed by Uniquant to determine sulfur content, indicating the solubility of the sulfur species at the vessel temperature. Similar experiments were conducted for carbon disulfide and chlorobenzene for each of the three solutes.

Data set [2] in a line: Thermal decomposition in p-xylene at 115° C. (sulfur content of supernatant by Uniquant). In kind it is physicochemical. The note with it: for Content of sulfur in the p-xylene solvent: 115° C. The procedure: The purpose of this experiment was to determine the rate that polymeric sulfur thermally decomposes into cyclooctasulfur in p-xylene. Polymeric sulfur is essentially insoluble in p-xylene, except when the polymer decomposes into cyclooctasulfur. Thus, the sulfur content in the p-xylene is a measure of the amount of polymeric sulfur that has decomposed to cyclooctasulfur. In this experiment, 50.32 grams of p-xylene were added to a 100-milliliter jacketed glass vessels fitted with a circulating heating bath, cooling water condenser, magnetic stir bar and stir plate, and nitrogen purge. The p-xylene was heated to 115° C. and 2.03 grams of unoiled commercial crystalline polymeric sulfur (Crystex™) was added while stirring. Periodically samples of the supernatant liquid were withdrawn from the vessel via a heated fritted glass pipette (heated to the same temperature as the solution). These supernatant samples were analyzed by Uniquant to determine sulfur content. The sulfur content was used to calculate the amount of polymeric sulfur remaining undissolved and undecomposed to cyclooctasulfur. After 60 and 75 minutes at 115° C., about 85% and essentially 100% respectively, of the polymeric sulfur had been converted into cyclooctasulfur.
The equipment and procedure used in Example 22 for measurement of the decomposition of polymeric sulfur was used to measure the decomposition of cyclododecasulfur in para-xylene. Two grams of purified cyclododecasulfur (produced by a procedure in the fashion of Example 2) was heated and stirred in 50.0 grams of p-xylene in a 100-milliliter jacketed glass vessels fitted with a circulating heating bath, cooling water condenser, magnetic stir bar and stir plate, and nitrogen purge. After 60, 75, and 120 minutes at 115° C., the content of sulfur in the p-xylene solvent was found by Uniquant to be about 0.4 wt % in each case, similar to the solubility of cyclododecasulfur in p-xylene at 115° C. (see Example 21). Upon cooling of the p-xylene, filtration, and drying of the recovered solids overnight in a vacuum oven at room temperature and 0.067 MPa (absolute), greater than 97% of the cyclododecasulfur input weight of solids was recovered.

On to `S1SSSSSSSSSSS1` [Cyclododecasulfur, cyclododecasulfur], for which the “Solubility in weight % of solute in solvent” value is on record as 0.2 wt % in data set [1] (CS2, 22 ° C.); 0.5 wt % in data set [1] (CS2, 45 ° C.); 0.015 wt % in data set [1] (Cl-benzene, 45 ° C.); 0.44 wt % in data set [1] (Cl-benzene, 115 ° C.); under 0.05 wt % in data set [1] (P-xylene, 45 ° C.); 0.4 wt % in data set [1] (P-xylene, 115 ° C.). Besides, in data set [2] (after 120 minutes at 115° C. in p-xylene, cooling, filtration and drying), the “Input weight of solids recovered after heating” value was “greater than 97%”. For the same molecule, the “Fraction decomposed/converted to cyclooctasulfur” value in data set [2] (mixture of polymeric sulfur and cyclododecasulfur in p-xylene at 115° C. for two hours) is “less than 3%”. Besides, the “Content of sulfur in the p-xylene solvent” value in data set [2] (60 minutes), in data set [2] (75 minutes) and in data set [2] (120 minutes) was “about 0.4 wt %” in each case.
Consider `S1SSSSSSS1` [Cyclooctasulfur, cyclooctasulfur, reference compound], for which the “Solubility in weight % of solute in solvent” value in data set [1] (CS2, 22 ° C.) amounted to 32 wt %; in data set [1] (CS2, 45 ° C.) it was 48 wt %; in data set [1] (Cl-benzene, 22 ° C.), 2.4 wt %; in data set [1] (Cl-benzene, 45 ° C.) it was 6.2 wt %; in data set [1] (P-xylene, 22 ° C.) it was 2.3 wt %; in data set [1] (P-xylene, 45 ° C.) it was 5.6 wt %.
